Assay results reported in US20180099937A1, “NOVEL ARYL-CYANOGUANIDINE COMPOUNDS” (Bayer Pharma Aktiengesellschaft, priority 2015, published 2018).

Experiments:
SMYD2 [1] = biological target: T1, SMYD2 (Homo sapiens, UniProt Q9NRG4); experiment: In Cell Western (ICW) cell-based assay for detection of SMYD2 methylation activity; set-up: expressed in transfected cells; host or cells: KYSE-150 (human esophageal carcinoma, DSMZ ACC 375); settings: SMYD2 overexpressing KYSE-150 cells, 72 h treatment, p53K370me1 signal normalized to DRAQ5; read-out: IC50 [mol/l] (ICW assay)
T1 sequence (Q9NRG4 whole entry): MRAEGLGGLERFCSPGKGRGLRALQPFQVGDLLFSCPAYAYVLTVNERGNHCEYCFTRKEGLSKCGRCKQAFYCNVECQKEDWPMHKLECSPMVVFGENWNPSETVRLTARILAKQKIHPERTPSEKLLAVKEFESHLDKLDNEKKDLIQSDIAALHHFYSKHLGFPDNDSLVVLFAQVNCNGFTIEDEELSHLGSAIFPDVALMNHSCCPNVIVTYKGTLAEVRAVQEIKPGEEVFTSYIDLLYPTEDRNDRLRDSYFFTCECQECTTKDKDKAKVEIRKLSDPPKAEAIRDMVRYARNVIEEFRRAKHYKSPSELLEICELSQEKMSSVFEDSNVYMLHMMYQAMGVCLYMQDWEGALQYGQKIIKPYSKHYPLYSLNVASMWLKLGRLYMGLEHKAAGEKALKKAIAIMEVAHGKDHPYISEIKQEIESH
Description: 1.2 Cell-Based Assay for Detection of SMYD2 methylation Activity
For the detection of SMYD2 cellular methylation activity an In Cell Western (ICW) assay was established. This assay allows rapid processing of multiple samples for SMYD2 methylation derived immunofluorescence signals, with normalization to cell number via the use of the nucleic acid dye DRAQS. KYSE-150 cells (human esophageal carcinoma cell line; DSMZ-German Collection of Microorganisms and Cell Cultures; No: ACC 375) have been stably transfected with a construct expressing wild-type SMYD2 (NCBI Reference Sequence: NP_064582.2). To detect SMYD2-mediated methylation signals in cells, a customized antibody directed against mono-methylated lysine 370 on protein p53 (p53K370me1) was used. The polyclonal antibody was generated (Eurogentec) against a p53 peptide containing the mono-methylated K370 epitope as described elsewhere (Huang et al., Nature, 2006, 444(7119):629-32).
For conducting the ICW assay 5000 SMYD2 overexpressing KYSE-150 cells/well were seeded in 96-well plates (SIGMA) and cultivated for 24 h. As a control for maximal inhibition of ectopic methylation activity, non-transfected KYSE-150 cells were used. Cells were grown in 49% RPMI 1640 with 49% Ham's F12 media supplemented with 2% heat inactivated fetal calf serum (FCS). For determination of SMYD2 inhibitory activity, cells were treated for 72 h in the presence of compounds or with DMSO. Cells were treated with compounds to be tested at a final concentration range varying from 3.9×10^−8 to 5×10^−6 M. Media was removed and 3.7% (w/v) formaldehyde in PBS was added for 20 min. After two washes with phosphate buffered saline (PBS), 0.25% (v/v) Triton X100 in PBS was added for 15 minutes of permeabilization. After one washing step with PBS, cells were blocked for 1 h with 5% (w/v) non-fat dry milk in PBS. Fixed cells were exposed to primary […] antibody in 5% non-fat dry milk in PBS for 24 h. One row of cells on each plate was not exposed to p53K370me1 antibody and was reserved for background control measurements. The wells were washed three times with PBS, then secondary IR800 conjugated antibody (LI-COR) and DNA-intercalating dye, 5 μM DRAQ5 (LI-COR) were added for 3 h. After 5 washes with PBS, the fluorescence in each well was measured on an Odyssey (LI-COR) scanner at 800 nm (p53K370me1 signal; 764 nm excitation) and 700 nm (DRAQS signal; 683 nm excitation). Fluorescence intensity was quantified and normalized to background and DRAQ5 signals. IC50 values were calculated by fitting the normalized inhibition data to a 4-parameter logistic equation (Minimum, Maximum, IC50, Hill; Y=Max+(Min−Max)/(1+(X/IC50)Hill)) for each tested compound. For IC50 determination C0 (=no inhibition) was defined as the signal measured for DMSO treated controls. Ci (maximal inhibition) was defined as the signal measured for non SMYD2 overexpressing KYSE150 cells.

SMYD2 [2] = biological target: T1, SMYD2; experiment: Scintillation Proximity Assay (SPA) for detection of SMYD2 enzymatic inhibition; assay type: biochemical; set-up: The SMYD2 full length enzyme was produced in-house by expression (with an N-terminal 6× His tag) in E. coli; 6xHis (N); made in house; host or cells: E. coli; settings: SMYD2 full length enzyme, p53 Peptide substrate 1.0 μM, 3H-SAM 60 nM; read-out: IC50 [mol/l] (SPA Assay)
Procedure, shortened: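 Full-length N-His SMYD2 from E. coli (typically 3 nM) was preincubated with compounds (0.1 nM–20 μM) for 15 min, then reacted 30 min at 22° C with 60 nM 3H-SAM and 1.0 μM biotinylated p53 peptide in Tris pH 9.0. Streptavidin SPA beads read methylation, and IC50 came from a 4-parameter fit.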

IC50 (SMYD2 [1]) [nM] | IC50 (SMYD2 [2]) [nM] | SMILES
2.6 | 4.45 | CCN(C(=O)[C@H]1CCCN1)C1CN(/C(=N\C#N)Nc2cccc(OC(F)F)c2)N=C1c1ccc(Cl)c(Cl)c1 (single isomer, unassigned) [Example 1.1, N-[1-{N′-Cyano-N-[3-(difluoromethoxy)phenyl]carbamimidoyl}-3-(3,4-dichlorphenyl)-4,5-dihydro-1H-pyrazol-4-yl]-N-ethyl-D-prolinamide]
63.4 | 19.8 | CCN(C(=O)[C@H]1C[C@@H](O)CN1)C1CN(/C(=N\C#N)Nc2cccc(OC(F)F)c2)N=C1c1ccc(Cl)c(Cl)c1 (single isomer, unassigned) [Example 3.1]
20.3 | 15.6 | CCN(C(=O)[C@H]1CCCN1)C1CN(/C(=N\C#N)Nc2cccc(OC(F)F)c2F)N=C1c1ccc(Cl)c(Cl)c1 (single isomer, unassigned) [Example 13.1, N-[1-{N′-Cyano-N-[3-(difluoromethoxy)-2-fluorophenyl]carbamimidoyl}-3-(3,4-dichlorophenyl)-4,5-dihydro-1H-pyrazol-4-yl]-N-ethyl-D-prolinamide]
16.8 | 28 | CCN(C(=O)[C@H]1CCCN1)C1CN(/C(=N\C#N)Nc2cccc(OC(F)(F)F)c2F)N=C1c1ccc(Cl)c(Cl)c1 (single isomer, unassigned) [Example 21.1, N-[1-{N′-Cyano-N-[2-fluoro-3-(trifluoromethoxy)phenyl]carbamimidoyl}-3-(3,4-dichlorophenyl)-4,5-dihydro-1H-pyrazol-4-yl]-N-ethyl-D-prolinamide]
228 | 878 | CCN(C(=O)[C@H]1CCCN1)C1CN(/C(=N\C#N)Nc2cccc(OC(F)(F)F)c2F)N=C1c1ccc(Cl)c(Cl)c1 (single isomer, unassigned) [Example 21.2, N-[1-{N′-Cyano-N-[2-fluoro-3-(trifluoromethoxy)phenyl]carbamimidoyl}-3-(3,4-dichlorophenyl)-4,5-dihydro-1H-pyrazol-4-yl]-N-ethyl-D-prolinamide]

Second part, the compound before the results:

SMILES | IC50 (SMYD2 [1]) [nM] | IC50 (SMYD2 [2]) [nM]
CCN(C(=O)[C@H]1CCCN1)C1CN(/C(=N\C#N)Nc2cccc(OC(F)F)c2)N=C1c1ccc(Cl)c(Cl)c1 (mixture of isomers) [Example 1, N-[1-{N′-Cyano-N-[3-(difluoromethoxy)phenyl]carbamimidoyl}-3-(3,4-dichlorophenyl)-4,5-dihydro-1H-pyrazol-4-yl]-N-ethyl-D-prolinamide] | 161 | 24.7
CCN(C(=O)[C@H]1CCN1)C1CN(/C(=N\C#N)Nc2cccc(OC(F)F)c2)N=C1c1ccc(Cl)c(Cl)c1 (mixture of isomers) [Example 2, (2R)-N-[1-{N′-cyano-N-[3-(difluoromethoxy)phenyl]carbamimidoyl}-3-(3,4-dichlorophenyl)-4,5-dihydro-1H-pyrazol-4-yl]-N-ethylazetidine-2-carboxamide] | 44.5 | 14.5
C[C@]1(C(=O)NC2CN(/C(=N\C#N)Nc3cccc(OC(F)F)c3)N=C2c2ccc(Cl)c(Cl)c2)CCCN1 (mixture of isomers) [Example 6, N-[1-{N′-Cyano-N-[3-(difluoromethoxy)phenyl]carbamimidoyl}-3-(3,4-dichlorophenyl)-4,5-dihydro-1H-pyrazol-1-yl]-2-methyl-D-prolinamide] | 104 | 11.3
CN(C(=O)[C@H]1C[C@@H](O)CN1)C1CN(/C(=N\C#N)Nc2cccc(OC(F)F)c2)N=C1c1ccc(Cl)c(Cl)c1 (mixture of isomers) [Example 12, (4R)-N-[1-{N′-Cyano-N-[3-(difluoromethoxy)phenyl]carbamimidayl}-3-(3,4-dichlorophenyl)-4,5-dihydro-1H-pyrazol-1-yl]-4-hydroxy-N-methyl-D-prolinamide] | 313 | 16.8
CCN(C(=O)[C@H]1CCCN1)C1CN(/C(=N\C#N)Nc2cc(OC)cc(C(F)(F)F)c2)N=C1c1ccc(Cl)c(Cl)c1 (mixture of isomers) [Example 28, N-[1-{N′-Cyano-N-[3-methoxy-5-(trifluoromethyl)phenyl]carbamimidoyl}-3-(3,4-dichlorophenyl)-4,5-dihydro-1H-pyrazol-4-yl]-N-ethyl-D-prolinamide] | 77 | 39.5
CCN(C(=O)[C@H]1CCCN1)C1CN(/C(=N\C#N)Nc2cc(OC)ccc2Cl)N=C1c1ccc(Cl)c(Cl)c1 (mixture of isomers) [Example 32, N-{1-[N-(2-Chloro-5-methoxyphenyl)-N′-cyanocarbamimidoyl]-3-(3,4-dichlorophenyl)-4,5-dihydro-1H-pyrazol-4-yl}-N-ethyl-D-prolinamide] | 268 | 38.4
CCN(C(=O)[C@H]1CCN1)C1CN(/C(=N\C#N)Nc2cccc(OC(F)F)c2)N=C1c1ccc(Cl)c(C)c1 (mixture of isomers) [Example 36, (2R)-N-[3-(4-Chloro-3-methylphenyl)-1-{N′-cyano-N-[3-(difluoromethoxy)phenyl]-carbamimidoyl}-4,5-dihydro-1H-pyrazol-4-yl]-N-ethylazetidine-2-carboxamide] | 3.87 | 8.03
CCN(C(=O)[C@H]1C[C@@H](F)CN1)C1CN(/C(=N\C#N)Nc2cccc(OC(F)F)c2)N=C1c1ccc(Cl)c(C)c1 (mixture of isomers) [Example 38, (4R)-N-[3-(4-Chloro-3-methylphenyl)-1-{N′-cyano-N-[3-(difluoromethoxy)phenyl]carbamimidoyl}-4,5-dihydro-1H-pyrazol-4-yl]-N-ethyl-4-fluoro-D-prolinamide] | 18.8 | 387
CCCN(C(=O)[C@H]1CCCN1)C1CN(/C(=N\C#N)Nc2cccc(OC(F)F)c2)N=C1c1ccc(Cl)c(C)c1 (mixture of isomers) [Example 40, N-[3-(4-Chloro-3-methylphenyl)-1-{N′-cyano-N-[3-(difluoromethoxy)phenyl]carbamimidoyl}-4,5-dihydro-1H-pyrazol-4-yl]-N-propyl-D-prolinamide] | 206 | 44.3
CCN(C(=O)c1cccc(=O)[nH]1)C1CN(/C(=N\C#N)Nc2cccc(OC(F)F)c2)N=C1c1ccc(Cl)c(Cl)c1 (racemic) [Example 5, rac-N-[1-{N′-Cyano-N-[3-(difluoromethoxy)phenyl]carbamimidoyl}-3-(3,4-dichlorophenyl)-4,5-dihydro-1-pyrazol-4-yl]-N-ethyl-6-oxo-1,6-dihydropyridine-2-carboxamide] | 720 | 793
CCN(C(=O)c1cccc(=O)[nH]1)C1CN(/C(=N\C#N)Nc2cccc(OC(F)(F)F)c2)N=C1c1ccc(Cl)c(Cl)c1 (racemic) [Example 18, rac-N-[1-{N′-Cyano-N-[3-(trifluoromethoxy)phenyl]carbamimidoyl}-3-(3,4-dichlorophenyl)-4,5-dihydro-1H-pyrazol-4-yl]-N-ethyl-6-oxo-1,6-dihydropyridine-2-carboxamide] | 764 | 1520
N#C/N=C(/Nc1cccc(OC(F)F)c1)N1CC(NC(=O)[C@@H]2CCC[C@@H]2N)C(c2ccc(Cl)c(Cl)c2)=N1 (relative stereo) [Example 41, Rel-(1R,2S)-2-amino-N-[1-{N′-cyano-N-[3-(difluoromethoxy)phenyl]carbamimidoyl}-3-(3,4-dichlorophenyl)-4,5-dihydro-1H-pyrazol-4-yl]cyclopentanecarboxamide] | 571 | 121
